The source of these data is paper PMC8508980, “Design, Synthesis and Anticancer Profile of New 4-(1H-benzo[d]imidazol-1-yl)pyrimidin-2-amine-Linked Sulfonamide Derivatives with V600EBRAF Inhibitory Effect” (International Journal of Molecular Sciences, 2021).

The target of one test is T1, V600EBRAF (Homo sapiens, UniProt P15056, V600E).
T1 construct: purchased Reaction Biology Corp. (Kinase HotSpot service)
The test is described as follows: Reaction Biology kinase HotSpot enzyme assay. Type of test: biochemical. The settings on record: 1 µM ATP; for IC50: mean ± S.D. of two separate experiments; for % Inhibition at 1 µM over V600EBRAF / inhibition at 1 µM: single dose 1 µM, mean ± S.D. of two experiments; for inhibition at 1 µM: read-out: % Inhibition at 1 µM over V600EBRAF. As to the method: Reaction Biology Corp. Kinase HotSpotTM service
Proﬁler Express for IC50 measurement. Assay protocol: In a ﬁnal reaction volume of 25 μL, kinase (5–10 mU) is incubated with 25 mM Tris pH 7.5, 0.02 mM EGTA, 0.66 mg/mL myelin basic protein, 10 mM magnesium acetate and [γ33P-ATP] (speciﬁc activity approx. 500 cpm/pmol, concentration as required). The reaction is initiated by the addition of the Mg-ATP mix. After incubation for 40 min at room temperature, the reaction is stopped by the addition of 5 μL of a 3% phosphoric acid solution. 10 μL of the reaction is then spotted onto a P30 ﬁltermat, and washed three times for 5 min in 75 mM phosphoric acid and once in methanol prior to drying and scintillation counting.

For a further test, the system named is MOLT-4. Nature of the test: NCI 60 cell line screen. Type of test: cell-based, human. The settings on record: Homo sapiens; MOLT-4, Leukemia; read-out: Percent growth. Put shortly: (§1)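 SRB read-out (515 nm) after 48 h drug exposure, 37 °C, RPMI 1640/5% FBS; five-point dilution series, top conc. 10 µM. Percent growth from Tz, control and treated absorbances; GI50 and TGI derived.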

The next test concerns HCT-15. Nature of the test: NCI 60 cell line screen. The format is cell-based, human. Particulars: for activity at 10 µM: Homo sapiens, HCT-15, Colon Cancer, read-out: Percent growth. In outline:
(§2)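 Cells grown in RPMI 1640 with 5% FBS were plated 24 h before dosing, then exposed for 48 h at 37 °C to five drug concentrations (maximum 10 µM). Adherent cells were TCA-fixed, suspension cells fixed with 80% TCA. SRB absorbance at 515 nm, relative to time-zero and control plates, gave percent growth and TGI.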

For the next test, the system named is KM12. Nature of the test: NCI 60 cell line screen. Type of test: cell-based, human. Particulars: for activity at 10 µM: Homo sapiens, KM12, Colon Cancer, read-out: Percent growth. In outline: as §1
Another test concerns SNB-75. The test is described as follows: NCI 60 cell line screen. The settings on record: Homo sapiens; SNB-75, CNS-Cancer; read-out: Percent growth. Type of test: cell-based, human. Put shortly: as §2
In the next test the test system is UO-31. Nature of the test: NCI 60 cell line screen. Type of test: cell-based, human. The settings on record: for activity at 10 µM: Homo sapiens, UO-31, Renal Cancer, read-out: Percent growth. In outline:
as §2

The next test deals with CAKI-1. The test is described as follows: NCI 60 cell line screen. Type of test: cell-based, human. Particulars: for activity at 10 µM: Homo sapiens, CAKI-1, Renal Cancer, read-out: Percent growth. In outline: as §2
A further test relates to NCI-H460. Nature of the test: NCI 60 cell line screen. Type of test: cell-based, human. Particulars: Homo sapiens; NCI-H460, Non-Small Cell Lung Cancer; read-out: Percent growth. In outline: as §2
A further test has as its system T-47D. Nature of the test: NCI 60 cell line screen. The format is cell-based, human. Particulars: for activity at 10 µM: Homo sapiens, T47D, Breast Cancer, read-out: Percent growth; for percent inhibition: NCI-60 heat map analysis. In outline:
as §1

In another test the test system is RPMI-8226. Nature of the test: NCI 60 cell line screen. Type of test: cell-based, human. The settings on record: Homo sapiens; RPMI-8226, Leukemia; read-out: Percent growth. Put shortly:
as §1

In another test the test system is OVCAR-4. The test is described as follows: NCI 60 cell line screen. Particulars: for activity at 10 µM: Homo sapiens, OVCAR-4, Ovarian Cancer, read-out: Percent growth. The format is cell-based, human. In outline:
as §1

A further test has as its system PC-3. The test is described as follows: NCI 60 cell line screen. The format is cell-based, human. The settings on record: Homo sapiens; PC-3, Prostate Cancer; read-out: Percent growth. Put shortly:
as §2

In another test the test system is HT29. The test is described as follows: NCI 60 cell line screen. Type of test: cell-based, human. The settings on record: for activity at 10 µM: Homo sapiens, HT-29, HT29, Colon Cancer, read-out: Percent growth. In outline:
as §2

A further test has as its system CCRF-CEM. Nature of the test: NCI 60 cell line screen. The format is cell-based. The settings on record: Homo sapiens, Leukemia, read-out: Percent growth. As to the method:
(§3) Anticancer profiling over a panel of 60 cancer cell lines was carried out at the National Cancer Institute (NCI), Bethesda, Maryland, USA, https://dtp.cancer.gov/discovery_development/nci-60/methodology.htm (Last visit 22 September 2021), using the standard procedure (detailed procedure is located in the Supplementary Information page 50 s).
(§4) NCI standard procedure for 60 cell lines assay
(§5) The human tumor cell lines of the cancer screening panel are grown in RPMI 1640 mediu m containing 5% fetal bovine serum and 2 mM L-glutamine. For a typical screening experiment, cells are inoculated into 96 well microtiter plates in 100 μL at plating densities ranging from 5,000 to 40,000 cells/well depending on the doubling time of individual cell lines. After cell inoculation, the microtiter plates are incubated at 37° C, 5 % CO2, 95 % air and 100 % relative humidity for 24 h prior to addition of experimental drugs.
(§6) After 24 h, two plates of each cell line are fixed in situ with TCA, to represent a measurement of the cell population for each cell line at the time of drug addition (Tz). Experimental drugs are solubilized in dimethyl sulfoxide at 400-fold the desired final maximum test concentration (10 µM) and stored frozen prior to use. At the time of drug addition, an aliquot of frozen concentrate is thawed and diluted to twice the desired final maximum test concentration with co mp lete medium containing 50 μg/ml gentamicin. Additional four, 10-fold or ½ log serial dilutions are made to provide a total of five drug concentrations plus control. Aliquots of 100 μl of these different drug dilutions are added to the appropriate microtiter wells already containing 100 μl of medium, resulting in the required final drug concentrations.
(§7) Following drug addition, the plates are incubated for an additional 48 h at 37°C, 5 % CO2, 95 % air, and 100 % relative humidity. For adherent cells, the assay is terminated by the addition of cold TCA. Cells are fixed in situ by the gentle addition of 50 μl of cold 50 % (w/v) TCA (final concentration, 10 % TCA) and incubated for 60 minutes at 4°C. The supernatant is discarded, and the plates are washed five times with tap water and air dried. Sulforhodamine B (SRB) solution (100 μl) at 0.4 % (w/v) in 1 % acetic acid is added to each well, and plates are incubated for 10 minutes at room temperature. After staining, unbound dye is removed by washing five times with 1 % acetic acid and the plates are air dried. Bound stain is subsequently solubilized with 10 mM trizma base, and the absorbance is read on an automated plate reader at a wavelength of 515 nm. For suspension cells, the methodology is the same except that the assay is terminated by fixing settled cells at the bottom of the wells by g ently adding 50 μl of 80 % TCA (final concentration, 16 % TCA). Using the seven absorbance measurements [time zero, (Tz), control growth, (C), and test growth in the presence of drug at the five concentration levels (Ti)], the percentage growth is calculated at each of the drug concentrations levels. Percentage growth inhibition is calculated as:
(§8) [(Ti-Tz)/(C-Tz)] x 100 for concentrations for which Ti>/=Tz
(§9) [(Ti-Tz)/Tz] x 100 for concentrations for which Ti<Tz.
(§10) Three dose response parameters are calculated for each experimental agent. Growth inhibition of […]
(§11) resulting in a 50% reduction in the net protein increase (as measured by SRB staining) in control cells during the drug incubation. The drug concentration resulting in total growth inhibition […]
(§12) (TGI) is calculated from Ti = Tz.

The next test relates to OVCAR-3. Nature of the test: NCI 60 cell line screen. The format is cell-based. The settings on record: Homo sapiens; OVCAR-3, Ovarian Cancer; read-out: Percent growth. As for the experimental part:
as §3, §4, §5, §6, §7, §8, §9, §10, §11, §12

The test system of the next test is OVCAR-8. The test is described as follows: NCI 60 cell line screen. The format is cell-based. The settings on record: Homo sapiens; OVCAR-8, Ovarian Cancer; read-out: Percent growth. As to the method: as §3, §4, §5, §6, §7, §8, §9, §10, §11, §12

T1 sequence (P15056 whole entry V600E): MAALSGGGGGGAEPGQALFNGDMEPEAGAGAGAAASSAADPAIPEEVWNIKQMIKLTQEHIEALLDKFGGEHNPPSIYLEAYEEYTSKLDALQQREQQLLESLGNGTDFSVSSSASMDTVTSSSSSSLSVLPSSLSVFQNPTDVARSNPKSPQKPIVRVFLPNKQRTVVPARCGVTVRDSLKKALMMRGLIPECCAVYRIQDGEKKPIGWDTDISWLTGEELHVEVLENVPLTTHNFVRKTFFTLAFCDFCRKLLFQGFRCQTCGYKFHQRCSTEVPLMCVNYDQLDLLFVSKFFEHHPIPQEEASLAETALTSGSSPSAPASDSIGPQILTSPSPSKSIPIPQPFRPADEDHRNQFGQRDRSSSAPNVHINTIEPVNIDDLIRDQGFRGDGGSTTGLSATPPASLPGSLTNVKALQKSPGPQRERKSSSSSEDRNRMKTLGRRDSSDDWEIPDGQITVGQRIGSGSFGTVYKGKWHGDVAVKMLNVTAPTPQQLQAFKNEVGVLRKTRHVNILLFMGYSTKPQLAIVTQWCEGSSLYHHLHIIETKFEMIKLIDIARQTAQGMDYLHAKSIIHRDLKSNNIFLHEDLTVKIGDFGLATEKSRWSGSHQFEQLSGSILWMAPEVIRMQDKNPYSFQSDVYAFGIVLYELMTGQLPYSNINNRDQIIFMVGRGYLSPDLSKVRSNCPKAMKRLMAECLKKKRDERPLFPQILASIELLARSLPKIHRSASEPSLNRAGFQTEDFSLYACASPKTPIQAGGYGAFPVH

For the molecule `O=S(=O)(NCCCNc1nccc(-n2cnc3ccccc32)n1)c1ccc(F)cc1` [12i, N-(3-((4-(1H-benzo [d]imidazol-1-yl)pyrimidin-2-yl)amino)propyl)-4-fluorobenzenesulfonamide], at V600EBRAF, it took 0.53 ± 0.022 µM to reach half-maximal inhibition (IC50). In addition, on V600EBRAF, the % Inhibition (as a rule, the share of the control response that was lost under treatment) at 1 µM over V600EBRAF is recorded as 97.81 ± 0.82%. On V600EBRAF, the inhibition (as a rule, how much of the control response was suppressed) at 1 µM amounted to 98%. Moreover, the activity at 10 µM in the test with MOLT-4 turned out to be 33.2%; in the test on HCT-15, 82.8%; with KM12, 48.9%; with SNB-75, 82.5%; with UO-31, 59.3%; in the test with CAKI-1, 71%. Besides, the activity at 10 µM in the test on NCI-H460 turned out to be 79.7%; with T-47D, 25.5%; in the test with RPMI-8226, 57.8%; in the test on OVCAR-4, 44.2%; in the test with PC-3, 69.3%; in the test on HT29, 92.8%. Further, the activity at 10 µM with CCRF-CEM came to 49%; in the test on OVCAR-3 it was 86.7%; in the test with OVCAR-8, 62.5%. Further, the percent inhibition entry in the test with KM12 (KM12, NCI-60 heat map analysis) was “around 50%”; in the test with T-47D, 75%; with OVCAR-4 (OVCAR-4, NCI-60 heat map analysis), 56%.

As to `O=S(=O)(NCCCNc1nccc(-n2cnc3ccccc32)n1)c1ccc(Cl)cc1` [12j, N-(3-((4-(1H-benzo [d]imidazol-1-yl)pyrimidin-2-yl)amino)propyl)-4-chloro benzenesulfonamide], on V600EBRAF, the IC50 (as a rule, the midpoint of a concentration-inhibition curve) was found to be 0.79 ± 0.051 µM. In addition, the “% Inhibition at 1 µM over V600EBRAF” value on V600EBRAF is 88.14 ± 0.19%. In addition, the inhibition at 1 µM at V600EBRAF was 88%. The activity at 10 µM in the test on MOLT-4 was determined as 82.3%; with HCT-15, 93.1%; in the test with KM12, 92%; with SNB-75, 91.7%; in the test with UO-31, 87.2%; in the test with CAKI-1 it was 94.5%. The activity at 10 µM amounted to 99.8% with NCI-H460; 65.3% in the test on T-47D; 78% in the test with RPMI-8226; 83% with OVCAR-4; 92.5% in the test on PC-3; 104% in the test with HT29. The activity at 10 µM with CCRF-CEM was found to be 91.7%; in the test with OVCAR-3, 107%; in the test on OVCAR-8, 90.8%.

On to `O=S(=O)(NCCCNc1nccc(-n2cnc3ccccc32)n1)c1ccc(Br)cc1` [12k, N-(3-((4-(1H-benzo [d]imidazol-1-yl)pyrimidin-2-yl)amino)propyl)-4-bromo benzenesulfonamide], for which, at V600EBRAF, the IC50 came out at 0.81 ± 0.056 µM. Also, the “% Inhibition at 1 µM over V600EBRAF” value at V600EBRAF is 73.81 ± 0.75%. The inhibition at 1 µM at V600EBRAF is 74%. Moreover, the activity at 10 µM in the test with MOLT-4 was determined as 64.9%; with HCT-15, 83.2%; with KM12 it was 68.3%; in the test on SNB-75, 86.1%; in the test with UO-31 it was 74.3%; in the test with CAKI-1, 84.5%. Moreover, the activity at 10 µM in the test on NCI-H460 was 94.3%; in the test with T-47D, 45.3%; in the test on RPMI-8226, 71.1%; in the test with OVCAR-4, 72.1%; with PC-3, 84.7%; in the test with HT29, 103%. Also, the results for the activity at 10 µM with CCRF-CEM, in the test with OVCAR-3 and in the test on OVCAR-8 were 83%, 104% and 82.5%, respectively. Moreover, in the test on T-47D, the percent inhibition turned out to be 55%.

With `O=S(=O)(NCCCNc1nccc(-n2cnc3ccccc32)n1)c1ccc(C(F)(F)F)cc1` [12l, N-(3-((4-(1H-benzo [d]imidazol-1-yl)pyrimidin-2-yl)amino)propyl)-4-(trifluoromethyl) benzenesulfonamide], it took 0.49 ± 0.061 µM to reach half-maximal inhibition at V600EBRAF (IC50). Further, the “% Inhibition at 1 µM over V600EBRAF” value at V600EBRAF amounted to 98.75 ± 0.58%. The inhibition at 1 µM at V600EBRAF turned out to be 99%. Further, the activity at 10 µM amounted to 38.4% with MOLT-4; 53.8% in the test on HCT-15; 51.7% in the test on KM12; 65.2% in the test on SNB-75; 54.4% in the test on UO-31; 51.4% in the test on CAKI-1. The activity at 10 µM with NCI-H460 was determined as 79.3%; with T-47D, 16.8%; in the test with RPMI-8226 it was 55.6%; with OVCAR-4, 53%; with PC-3 it was 59%; with HT29, 54.6%. Moreover, the figures for the activity at 10 µM in the test on CCRF-CEM, in the test on OVCAR-3 and in the test on OVCAR-8 were 51.9%, 81.2% and 60%, respectively. Further, the percent inhibition entry with HCT-15 (HCT-15, NCI-60 heat map analysis) was “more than 40%”; with UO-31 (UO-31, NCI-60 heat map analysis), 46%; in the test with CAKI-1 (CAKI-1, NCI-60 heat map analysis), 49%; in the test with T-47D, 84%; in the test with HT29 (HT29, NCI-60 heat map analysis) it was “more than 40%”.
